Data on one compound can be found in patent US20040086569A1, “Active agent delivery systems, medical devices, and methods” (Medtronic, Inc., priority 2002, published 2004).

Molecules are shown by their SMILES.

Data set [1] can be described thus: Dissolution of coumarin from PL75D/TP blend cap-coated shims in PBS. It counts as physicochemical. Particulars: FIG. 19. How it is done: P[…] was dried at 70° C. at reduced pressure overnight. The dried pellets were compressed between two plates that were pre-heated to 230° C. and maintained for about 5 minutes. After the sample was cooled down to room temperature, it was placed in a vial filled with THF and stirred until dissolved (by visual observation). […] Coumarin was also dissolved in THF. The concentrations of all the solutions were about 1 wt-%. TL solution and coumarin solution were mixed at a weigh ratio of 1:1. This mixture is the base coating solution of a reservoir system. TP solution and P[…] solution were mixed at various weight ratios to make five different mixtures with the weight ratios of TP to P[…] being 100:0, 75:25, 50:50, 25:75, and 0:100. These solutions are referred to herein as cap coating solutions of the reservoir system. Dissolution samples were prepared with stainless steel (316L) shims (12.1×38.1 mm^2) that were cleaned by rinsing with THF. The cleaned shims were coated with the […] solution. The coated shims were allowed to dry overnight under nitrogen. […] This thermal treatment led to formation of a primer on the surface of the shims that promoted their adhesion with polymer/active agent layers. […] The concentration of coumarin in all these solutions was measured with a liquid chromatography (HP 1090) that was equipped with a UV detector. […]

The conditions of data set [2]: Merck Index; cited from earlier work.

In the case of `O=c1ccc2ccccc2o1` [coumarin], the “Release rate, pure cap-coat polymers compared” value in data set [1] (100% PL75D versus 100% TP cap coat) is reported as “release much faster from a 100% PL75D coated shim than that from 100% TP coated shim”. For the same compound, in data set [1] (cap coat blends), the “Release rates from the PL75D/TP blends” value is “between that from the two pure polymers”. Also, in data set [2], the “Volume of cold water that dissolves one gram” value is reported as 400 mL.
